In patent US6525001B1, “Substituted pyrimidine and pyridine herbicides” (Mid-American Commercialization Corporation, priority 1997, dated 2003):

Tests used:
Format in all cases: in vivo
[1] = tested on: large crabgrass (Digitaria sanguinalis); test: Test C; parameters: key: 0 was no effect; 100 was complete control; settings: PREEMERGENCE
[2] = tested on: barnyardgrass (Echinochloa crus-galli); test: Test C; settings: PREEMERGENCE
[3] = tested on: itchgrass (Rottboellia exaltata); test: Test E pre-/postemergence/post directed; settings: PREEMERGENCE
Outline: (§1)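 Three application modes in greenhouse pots: preemergence soil spray, postemergence foliar spray at two to four leaves, and post-directed spray to soil and plant base. Ratings of 0–100 injury, assigned visually against untreated controls 13 to 21 days later.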

[4] = tested on: sandbur (Cenchrus echinatus); test: Test E pre-/postemergence/post directed; settings: PREEMERGENCE
Outline: as §1

[5] = tested on: Spanishneedles (Bidens bipinnata); test: Test E pre-/postemergence/post directed; settings: PREEMERGENCE
Outline: as §1

[6] = tested on: large crabgrass (Digitaria sanguinalis); test: Test E pre-/postemergence/post directed; settings: PREEMERGENCE
Outline: as §1

[7] = tested on: bermudagrass (Cynodon dactylon); test: Test E pre-/postemergence/post directed; settings: PREEMERGENCE
Outline: as §1

[8] = tested on: common ragweed (Ambrosia elatior); test: Test E pre-/postemergence/post directed; settings: PREEMERGENCE
Outline: as §1

[9] = tested on: cocklebur (Xanthium strumarium); test: Test C; parameters: key: 0 was no effect; 100 was complete control; settings: PREEMERGENCE
[10] = tested on: velvetleaf (Abutilon theophrasti); test: Test C; settings: PREEMERGENCE
[11] = tested on: common ragweed (Ambrosia elatior); test: Test C; settings: PREEMERGENCE
[12] = tested on: redroot pigweed (Amaranthus retroflexus); test: Test C; parameters: key: 0 was no effect; 100 was complete control; settings: PREEMERGENCE
[13] = tested on: fall panicum (Panicum dichotomiflorum); test: Test C; parameters: key: 0 was no effect; 100 was complete control; settings: PREEMERGENCE
[14] = tested on: goosegrass (Eleusine indica); test: Test E pre-/postemergence/post directed; parameters: key: 0 is no effect; 100 is complete control; settings: PREEMERGENCE
Outline: as §1

[15] = tested on: guineagrass (Panicum maximum); test: Test E pre-/postemergence/post directed; parameters: key: 0 is no effect; 100 is complete control; settings: PREEMERGENCE
Outline: as §1

[16] = tested on: dallisgrass (Paspalum dilatatum); test: Test E pre-/postemergence/post directed; parameters: key: 0 is no effect; 100 is complete control; settings: PREEMERGENCE
Outline: as §1

[17] = tested on: common ragweed (Ambrosia elatior); test: Test E pre-/postemergence/post directed; parameters: key: 0 is no effect; 100 is complete control; settings: PREEMERGENCE, Rate 250 g/ha
Outline: as §1

[18] = tested on: arrowleaf sida (Sida rhombifolia); test: Test C; parameters: key: 0 was no effect; 100 was complete control; settings: PREEMERGENCE
[19] = tested on: giant foxtail (Setaria faberii); test: Test C; parameters: key: 0 was no effect; 100 was complete control; settings: PREEMERGENCE
[20] = tested on: ladysthumb smartweed (Polygonum persicaria); test: Test C; settings: PREEMERGENCE

CCc1cnc(-n2ccc(C(F)(F)F)n2)nc1Cc1cccc(C(F)(F)F)c1 [Compound 46]
Plant response rating, Large crabgrass ([1]; Rate 35 g/ha): 80
Plant response rating, Large crabgrass ([1]; Rate 70 g/ha): 100
Plant response rating, Large crabgrass ([1]; Rate 140 g/ha): 100
Plant response rating, Barnyardgrass ([2]; Rate 35 g/ha): 5
Plant response rating, Barnyardgrass ([2]; Rate 70 g/ha): 10
Plant response rating, Barnyardgrass ([2]; Rate 140 g/ha): 50
Plant response rating, Itchgrass ([3]; Rate 125 g/ha): 40
Plant response rating, Itchgrass ([3]; Rate 250 g/ha): 40
Plant response rating, Sandbur ([4]; Rate 64 g/ha): 10
Plant response rating, Sandbur ([4]; Rate 125 g/ha): 10
Plant response rating, Sandbur ([4]; Rate 250 g/ha): 30
Plant response rating, Spanishneedles ([5]; Rate 32 g/ha): 65
Plant response rating, Spanishneedles ([5]; Rate 64 g/ha): 85
Plant response rating, Spanishneedles ([5]; Rate 125 g/ha): 90
Plant response rating, Spanishneedles ([5]; Rate 250 g/ha): 90
Plant response rating, Large crabgrass ([6]; Rate 32 g/ha): 90
Plant response rating, Large crabgrass ([6]; Rate 64 g/ha): 98
Plant response rating, Bermudagrass ([7]; Rate 32 g/ha): 70
Plant response rating, Bermudagrass ([7]; Rate 64 g/ha): 98
Plant response rating, Com. ragweed ([8]; Rate 64 g/ha): 98
Plant response rating, Com. ragweed ([8]; Rate 125 g/ha): 98
Plant response rating, Cocklebur ([9]; Rate 35 g/ha): 0
Plant response rating, Cocklebur ([9]; Rate 70 g/ha): 10
Plant response rating, Cocklebur ([9]; Rate 140 g/ha): 5
Plant response rating, Velvetleaf ([10]; Rate 35 g/ha): 50
Plant response rating, Velvetleaf ([10]; Rate 70 g/ha): 80
Plant response rating, Velvetleaf ([10]; Rate 140 g/ha): 80
Plant response rating, Common ragweed ([11]; Rate 35 g/ha): 10
Plant response rating, Common ragweed ([11]; Rate 70 g/ha): 20
Plant response rating, Common ragweed ([11]; Rate 140 g/ha): 80
Plant response rating, Redroot pigweed ([12]; Rate 35 g/ha): 70
Plant response rating, Redroot pigweed ([12]; Rate 70 g/ha): 100
Plant response rating, Redroot pigweed ([12]; Rate 140 g/ha): 100
Plant response rating, Fall panicum ([13]; Rate 35 g/ha): 60
Plant response rating, Fall panicum ([13]; Rate 70 g/ha): 100
Plant response rating, Fall panicum ([13]; Rate 140 g/ha): 100
Plant response rating, Goosegrass ([14]; Rate 32 g/ha): 85
Plant response rating, Goosegrass ([14]; Rate 64 g/ha): 90
Plant response rating, Goosegrass ([14]; Rate 125 g/ha): 98
Plant response rating, Goosegrass ([14]; Rate 250 g/ha): 100
Plant response rating, Guineagrass ([15]; Rate 32 g/ha): 60
Plant response rating, Guineagrass ([15]; Rate 64 g/ha): 85
Plant response rating, Guineagrass ([15]; Rate 125 g/ha): 100
Plant response rating, Guineagrass ([15]; Rate 250 g/ha): 98
Plant response rating, Dallisgrass ([16]; Rate 32 g/ha): 65
Plant response rating, Dallisgrass ([16]; Rate 64 g/ha): 98
Plant response rating, Dallisgrass ([16]; Rate 125 g/ha): 100
Plant response rating, Dallisgrass ([16]; Rate 250 g/ha): 100
Plant response rating, Com. ragweed [17]: 100
Plant response rating, Arrowleaf sida ([18]; Rate 35 g/ha): 100
Plant response rating, Arrowleaf sida ([18]; Rate 70 g/ha): 90
Plant response rating, Arrowleaf sida ([18]; Rate 140 g/ha): 100
Plant response rating, Giant foxtail ([19]; Rate 35 g/ha): 100
Plant response rating, Giant foxtail ([19]; Rate 70 g/ha): 100
Plant response rating, Giant foxtail ([19]; Rate 140 g/ha): 100
Plant response rating, Ladysthumb ([20]; Rate 35 g/ha): 25
Plant response rating, Ladysthumb ([20]; Rate 70 g/ha): 10
Plant response rating, Ladysthumb ([20]; Rate 140 g/ha): 50
